# Assays:
# Type in all cases: in vivo
# [1] = system: barnyardgrass (Echinochloa crus-galli); test: Test B postemergence
# Outline: (§1)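 Preemergence: seeds planted and treated with test chemicals in non-phytotoxic solvent with surfactant; postemergence on plants 2–18 cm (1- to 4-leaf stage). Kept in greenhouse 13–15 days, then visually rated against controls on a 0 (no effect) to 100 (complete control) scale.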
# [2] = system: cocklebur (Xanthium strumarium); test: Test B postemergence
# Outline: as §1
# [3] = system: pigweed (Amaranthus retroflexus); test: Test B postemergence
# Outline: as §1
# corn (Zea mays) [4] = test: Test B postemergence
# Outline: as §1
# [5] = system: wheat (Triticum aestivum); test: Test B postemergence
# Outline: as §1
# [6] = system: giant foxtail (Setaria faberii); test: Test B postemergence
# Outline: as §1
# wild oat (Avena fatua) = test: Test B postemergence
# Outline: as §1
# [7] = system: lambsquarters (Chenopodium album); test: Test B postemergence
# Outline: as §1
# [8] = system: velvetleaf (Abutilon theophrasti); test: Test B postemergence
# Outline: as §1
# [9] = system: blackgrass (Alopecurus myosuroides); test: Test B postemergence
# Outline: as §1
# [10] = system: morning glory (Ipomoea hederacea); test: Test B postemergence
# Outline: as §1
# [11] = system: crabgrass (Digitaria sanguinalis); test: Test B postemergence
# Outline: as §1
# [12] = system: Surinam grass (Brachiaria decumbens); test: Test B postemergence
# Outline: as §1
# Sunflower [13] = test: Test C preemergence; conditions: visual evaluation after 12 to 14 days
# [14] = system: johnsongrass (Sorghum halepense); test: Test C preemergence; conditions: for Plant response rating (0 to 100), Johnsongrass: visual evaluation after 12 to 14 days
# Outline: (§2)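 Compounds in non-phytotoxic solvent with surfactant applied preemergence to planted seeds and postemergence to plants at 1- to 4-leaf stage (2–18 cm). Kept in greenhouse 12–14 days, then visually rated against controls on a 0 (no effect) to 100 (complete control) scale.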
# Sunflower [15] = test: Test C preemergence
# corn (Zea mays) [16] = test: Test C preemergence; conditions: for Plant response rating (0 to 100), Corn: visual evaluation after 12 to 14 days
# Outline: as §2
# [17] = system: morningglory (Ipomoea hederacea); test: Test C preemergence; conditions: for Plant response rating (0 to 100), Morningglory: visual evaluation after 12 to 14 days
# Outline: as §2
# [18] = system: giant foxtail (Setaria faberii); test: Test C preemergence; conditions: for Plant response rating (0 to 100), Foxtail, Giant: visual evaluation after 12 to 14 days
# Outline: as §2
# [19] = system: velvetleaf (Abutilon theophrasti); test: Test C preemergence; conditions: for Plant response rating (0 to 100), Velvetleaf: visual evaluation after 12 to 14 days
# Outline: as §2
# kochia (Kochia scoparia) = test: Test C preemergence; conditions: for Plant response rating (0 to 100), Kochia: visual evaluation after 12 to 14 days
# Outline: as §2
# [20] = system: bermudagrass (Cynodon dactylon); test: Test C preemergence; conditions: for Plant response rating (0 to 100 where 0 is no effect and 100 is complete control), Bermudagrass: visual evaluation after 12 to 14 days
# Outline: as §2
# [21] = system: yellow nutsedge (Cyperus esculentus); test: Test C preemergence; conditions: for Plant response rating (0 to 100), Nutsedge: visual evaluation after 12 to 14 days
# Outline: as §2
# [22] = Rate 125 g/ha, scale 0 to 100, 0 no effect, 100 complete control
# [23] = Rate 500 g/ha, scale 0 to 100, 0 is no effect, 100 is complete control, 13 to 15 days
# [24] = preemergence, Rate 62 g/ha, scale 0 to 100
# [25] = preemergence, Rate 250 g/ha, scale 0 to 100, 0 no effect, 100 complete control
# [26] = Rate 125 g/ha, scale 0 (no effect) to 100 (complete control), 13 to 15 days
# [27] = Preemergence, Rate 500 g/ha, scale 0 to 100
# [28] = Rate 62 g/ha, scale 0 to 100, 0 no effect, 100 complete control
# [29] = preemergence, Rate 125 g/ha, scale 0 to 100, 0 no effect, 100 complete control
smiles,measurement,setting,value
COc1cc(N2CCC(n3ccc(C(C)C)n3)C2=O)ccc1Cl (centres unmarked) [Compound 120],"Plant response rating, Barnyardgrass",[1]; [22],0
same,"Plant response rating, Barnyardgrass",[1]; [23],60
same,"Plant response rating, Cocklebur",[2]; [22],90
same,"Plant response rating, Cocklebur",[2]; [23],100
same,"Plant response rating, Pigweed",[3]; [22],60
same,"Plant response rating, Corn",corn (Zea mays) [4]; [22],0
same,"Plant response rating, Corn",corn (Zea mays) [4]; [23],20
same,"Plant response rating, Wheat",[5]; [22],10
same,"Plant response rating, Foxtail, Giant",[6]; [22],0
same,"Plant response rating, Wild Oat",wild oat (Avena fatua); [22],30
same,"Plant response rating, Lambsquarters",[7]; [22],60
same,"Plant response rating, Velvetleaf",[8]; [22],20
same,"Plant response rating, Blackgrass",[9]; [22],0
same,"Plant response rating, Blackgrass",[9]; [23],0
same,"Plant response rating, Morningglory",[10]; [22],50
same,"Plant response rating, Crabgrass",[11]; [22],30
same,"Plant response rating, Surinam grass",[12]; [22],20
same,"Plant response rating, Surinam grass",[12]; [23],40
same,"Plant response rating (0 to 100), Sunflower",Sunflower [13]; Rate 500 g/ha,100
same,"Plant response rating, Johnsongrass",[14]; [22],80
same,"Plant response rating, Johnsongrass",[14]; [24],20
same,"Plant response rating (0 to 100), Johnsongrass","[14]; preemergence, Rate 500 g/ha",100
same,"Plant response rating, Johnsongrass",[14]; [25],100
same,"Plant response rating, Sunflower",Sunflower [15]; [22],90
same,"Plant response rating, Corn",corn (Zea mays) [16]; [22],0
same,"Plant response rating, Corn",corn (Zea mays) [16]; [24],0
same,"Plant response rating (0 to 100), Corn","corn (Zea mays) [16]; preemergence, Rate 500 g/ha",60
same,"Plant response rating, Corn",corn (Zea mays) [16]; [25],20
same,"Plant response rating, Morningglory",[17]; [22],60
same,"Plant response rating, Morningglory",[17]; [24],60
same,"Plant response rating (0 to 100), Morningglory","[17]; preemergence, Rate 500 g/ha",100
same,"Plant response rating, Morningglory",[17]; [25],100
same,"Plant response rating, Foxtail, Giant",[18]; [22],50
same,"Plant response rating, Foxtail, Giant",[18]; [24],50
same,"Plant response rating (0 to 100), Foxtail, Giant","[18]; preemergence, Rate 500 g/ha",100
same,"Plant response rating, Foxtail, Giant",[18]; [25],60
same,"Plant response rating, Velvetleaf",[19]; [22],100
same,"Plant response rating, Velvetleaf",[19]; [24],80
same,"Plant response rating (0 to 100), Velvetleaf","[19]; preemergence, Rate 500 g/ha",100
same,"Plant response rating, Velvetleaf",[19]; [25],100
same,"Plant response rating, Kochia",kochia (Kochia scoparia); [22],100
same,"Plant response rating, Kochia",kochia (Kochia scoparia); [24],100
same,"Plant response rating (0 to 100), Kochia","kochia (Kochia scoparia); preemergence, Rate 500 g/ha",100
same,"Plant response rating, Kochia",kochia (Kochia scoparia); [25],100
same,"Plant response rating, Bermudagrass",[20]; [22],100
same,"Plant response rating, Bermudagrass",[20]; [24],100
same,"Plant response rating (0 to 100 where 0 is no effect and 100 is complete control), Bermudagrass","[20]; preemergence, Rate 500 g/ha",100
same,"Plant response rating, Bermudagrass",[20]; [25],100
same,"Plant response rating, Nutsedge",[21]; [22],80
same,"Plant response rating, Nutsedge",[21]; [24],40
same,"Plant response rating (0 to 100), Nutsedge","[21]; preemergence, Rate 500 g/ha",100
same,"Plant response rating, Nutsedge",[21]; [25],100
O=C1C(n2ccc(C3CC3)n2)CCN1c1cccc(C(F)(F)F)c1 (centres unmarked) [Compound 8],"Plant response rating, Barnyardgrass",[1]; [26],0
same,"Plant response rating, Barnyardgrass",[1]; [23],0
same,"Plant response rating, Cocklebur",[2]; [26],0
same,"Plant response rating, Cocklebur",[2]; [23],10
same,"Plant response rating, Pigweed",[3]; [26],0
same,"Plant response rating, Pigweed",[3]; [23],10
same,"Plant response rating, Corn",corn (Zea mays) [4]; [26],0
same,"Plant response rating, Corn",corn (Zea mays) [4]; [23],0
same,"Plant response rating, Wheat",[5]; [26],0
same,"Plant response rating, Wheat",[5]; [23],0
same,"Plant response rating, Foxtail, Giant",[6]; [26],0
same,"Plant response rating, Foxtail, Giant",[6]; [23],0
same,"Plant response rating, Wild Oat",wild oat (Avena fatua); [26],0
same,"Plant response rating, Wild Oat",wild oat (Avena fatua); [23],0
same,"Plant response rating, Lambsquarters",[7]; [26],30
same,"Plant response rating, Lambsquarters",[7]; [23],50
same,"Plant response rating, Velvetleaf",[8]; [26],0
same,"Plant response rating, Velvetleaf",[8]; [23],0
same,"Plant response rating, Blackgrass",[9]; [26],0
same,"Plant response rating, Blackgrass",[9]; [23],0
same,"Plant response rating, Morningglory",[10]; [26],0
same,"Plant response rating, Morningglory",[10]; [23],0
same,"Plant response rating, Crabgrass",[11]; [26],0
same,"Plant response rating, Crabgrass",[11]; [23],0
same,"Plant response rating, Surinam grass",[12]; [26],0
same,"Plant response rating, Surinam grass",[12]; [23],0
same,"Plant response rating (0 to 100), Sunflower",Sunflower [13]; Rate 250 g/ha,0
same,"Plant response rating, Johnsongrass",[14]; [27],0
same,"Plant response rating, Johnsongrass",[14]; [28],0
same,"Plant response rating (0 to 100), Johnsongrass","[14]; preemergence, Rate 250 g/ha",0
same,"Plant response rating, Johnsongrass",[14]; [29],0
same,"Plant response rating, Sunflower",Sunflower [15]; [28],0
same,"Plant response rating, Sunflower","Sunflower [15]; Rate 500 g/ha, scale 0 to 100",30
same,"Plant response rating, Corn",corn (Zea mays) [16]; [27],0
same,"Plant response rating, Corn",corn (Zea mays) [16]; [28],0
same,"Plant response rating (0 to 100), Corn","corn (Zea mays) [16]; preemergence, Rate 250 g/ha",0
same,"Plant response rating, Corn",corn (Zea mays) [16]; [29],0
same,"Plant response rating, Morningglory",[17]; [27],30
same,"Plant response rating, Morningglory",[17]; [28],20
same,"Plant response rating (0 to 100), Morningglory","[17]; preemergence, Rate 250 g/ha",30
same,"Plant response rating, Morningglory",[17]; [29],30
same,"Plant response rating, Foxtail, Giant",[18]; [27],100
same,"Plant response rating, Foxtail, Giant",[18]; [28],0
same,"Plant response rating (0 to 100), Foxtail, Giant","[18]; preemergence, Rate 250 g/ha",90
same,"Plant response rating, Foxtail, Giant",[18]; [29],20
same,"Plant response rating, Velvetleaf",[19]; [27],20
same,"Plant response rating, Velvetleaf",[19]; [28],0
same,"Plant response rating (0 to 100), Velvetleaf","[19]; preemergence, Rate 250 g/ha",20
same,"Plant response rating, Velvetleaf",[19]; [29],0
same,"Plant response rating, Kochia",kochia (Kochia scoparia); [27],70
same,"Plant response rating, Kochia",kochia (Kochia scoparia); [28],0
same,"Plant response rating (0 to 100), Kochia","kochia (Kochia scoparia); preemergence, Rate 250 g/ha",20
same,"Plant response rating, Kochia",kochia (Kochia scoparia); [29],0
same,"Plant response rating, Bermudagrass",[20]; [27],100
same,"Plant response rating, Bermudagrass",[20]; [28],0
same,"Plant response rating (0 to 100 where 0 is no effect and 100 is complete control), Bermudagrass","[20]; preemergence, Rate 250 g/ha",70
same,"Plant response rating, Bermudagrass",[20]; [29],70
same,"Plant response rating, Nutsedge",[21]; [27],0
same,"Plant response rating, Nutsedge",[21]; [28],0
same,"Plant response rating (0 to 100), Nutsedge","[21]; preemergence, Rate 250 g/ha",0
same,"Plant response rating, Nutsedge",[21]; [29],0
